Assay results reported in patent US9969758B2, “Antimicrobial compounds” (BIOMERIEUX, priority 2014, dated 2018).
≈ marks a conversion by molar mass, not a printed value. Where two headings read alike, the source gives them in different places.

Key:
Test in all cases: MIC by agar dilution
[1] = system: E. coli (53); assay type: cell-based, Escherichia coli; conditions: for MIC50 / MIC90 / MIC: Escherichia coli; for MIC: read-out: Modal MIC (most frequent MIC)
From the text: (§1) Bacterial isolates. […] These included Citrobacter freundii (n=5), other species of Citrobacter (n=4), Enterobacter aerogenes (n=1), Enterobacter cloacae (n=27), Escherichia coli (n=53), Klebsiella oxytoca (n=5), Klebsiella pneumoniae (n=87), Kluyvera spp (n=1), Proteus mirabilis (n=8), Providencia rettgeri (n=2), Salmonella spp (n=3), and Serratia marcescens (n=1). Among these 197 isolates, there were 128 (65%) carbapenemase producers, including; 87 with NDM-1, 9 with IMP, 11 with KPC, 14 with OXA-48 and 7 with VIM. The majority of the carbapenemase producers jointly produced broad-spectrum β-lactamases (BSBL) or cephalosporinases (AmpC β-lactamases), but the latter are not documented for the sake of clarity.
(§2) Determining the minimum inhibitory concentrations (MIC). All the MICs were determined using an agar dilution method. This required use of a medium without a defined antagonist (peptone-free), prepared as described previously with the inclusion of 2% horse blood lysed with saponin, 25.0 μg/mL of NAD and 25.0 μg/mL of hemin [17]. The compounds tested were dissolved in sterile deionised water and incorporated into the agar medium in a concentration range of 0.0031 to 8.0 μg/mL (0.016 to 32 μg/mL for gram-positive bacteria). All the isolates were prepared at a density equivalent to 0.5 McFarland units in sterile deionised water using a densitometer (approximately 1.5×10^8 CFU/mL), and then diluted to 1 for 15. An aliquot of 1 μL of each diluted suspension was then placed onto plates with a multispot inoculator to give the final recommended inoculation of 10 000 CFU/spot. The MICs of fosfomycin were determined by the same method, except that the IsoSensitest medium (Oxoid, Basingstoke, United Kingdom) was used, plus 25.0 μg/mL of glucose-6-phosphate (Sigma, Poole, United Kingdom) and an extended range of fosfomycin concentrations. All the dishes (including the antimicrobial-free controls) were incubated for 22 hours at 37° C. All the tests were performed on at least two independent replicates in order to examine the reproducibility.

[2] = system: All S. aureus (50); assay type: cell-based, Staphylococcus aureus; conditions: for MIC50 / MIC90 / MIC: Staphylococcus aureus; for MIC: read-out: Modal MIC (most frequent MIC)
From the text: (§3) A collection of 50 isolates of Staphylococci aureus included 36 strains of methicillin-resistant S. aureus (MRSA) frequently encountered in Europe, including strains isolated in Belgium, Finland, France, Germany and the United Kingdom. Another strain of MRSA, NCTC 11939, was included as a control, as well as a methicillin-sensitive control (NCTC 6571). Twelve other isolates of methicillin-sensitive Staphylococcus aureus (MSSA) recently collected from blood cultures were also included. Finally, 50 isolates of enterococci included two control strains (Enterococcus faecalis NCTC 755 and Enterococcus faecium NCTC 7171) and 48 isolates originating from clinical samples obtained from at least three different hospitals. The clinical isolates included E. faecalis (n=10), E. faecium (n=33), Enterococcus casseliflavus (n=3), Enterococcus gallinarum (n=2).
as §2

[3] = system: Enterobacteriaceae (197); assay type: cell-based; conditions: for MIC: read-out: Modal MIC (most frequent MIC)
From the text: as §1, §2

[4] = system: Enterobacteriaceae with a broad-spectrum β-lactamase; assay type: cell-based; conditions: for MIC: read-out: Modal MIC (most frequent MIC)
From the text: as §1, §2

[5] = system: carbapenemase-producing Enterobacteriaceae; assay type: cell-based; conditions: for MIC: read-out: Modal MIC (most frequent MIC)
From the text: as §1, §2

[6] = system: K. pneumoniae (87); assay type: cell-based, Klebsiella pneumoniae; conditions: Klebsiella pneumoniae; for MIC: read-out: Modal MIC (most frequent MIC)
From the text: as §1, §2

[7] = system: E. cloacae (27); assay type: cell-based, Enterobacter cloacae; conditions: Enterobacter cloacae; for MIC: read-out: Modal MIC (most frequent MIC)
From the text: as §1, §2

[8] = system: E. faecalis (11); assay type: cell-based, Enterococcus faecalis; conditions: for MIC50 / MIC90 / MIC: Enterococcus faecalis; for MIC: read-out: Modal MIC (most frequent MIC)
From the text: as §3, §2

[9] = system: AmpC (22); assay type: cell-based, Enterobacteriaceae; conditions: for MIC: read-out: Modal MIC (most frequent MIC)
From the text: as §1, §2

[10] = system: methicillin-resistant Staphylococcus aureus; assay type: cell-based; conditions: for MIC50 / MIC90 / MIC: Staphylococcus aureus; for MIC: read-out: Modal MIC (most frequent MIC)
From the text: as §3, §2

[11] = system: All Enterococci (50); assay type: cell-based; conditions: for MIC: read-out: Modal MIC (most frequent MIC)
From the text: as §3, §2

[12] = system: methicillin-sensitive Staphylococcus aureus; assay type: cell-based; conditions: for MIC50 / MIC90 / MIC: Staphylococcus aureus; for MIC: read-out: Modal MIC (most frequent MIC)
From the text: as §3, §2

[13] = system: glycopeptide-resistant enterococci; assay type: cell-based; conditions: for MIC: read-out: Modal MIC (most frequent MIC)
From the text: as §3, §2

[14] = system: E. faecium (34); assay type: cell-based, Enterococcus faecium; conditions: Enterococcus faecium; for MIC: read-out: Modal MIC (most frequent MIC)
From the text: as §3, §2

SMILES: C[C@@H]1O[C@@H]1P(=O)(O)O [Fosfomycin, disodium [(2R,3S)-3-methyloxiran-2-yl] phosphonate]
- MIC Range ([1]; E. coli (53)): 0.125 to 8 µg/mL
- MIC50 ([1]; E. coli (53), read-out: MIC50): 0.5 µg/mL
- MIC90 ([1]; E. coli (53), read-out: MIC90): 1 µg/mL
- MIC ([1]; E. coli (53)): 0.5 µg/mL
- MIC50 ([2]; All S. aureus (50), read-out: MIC50): 4 µg/mL
- MIC90 ([2]; All S. aureus (50), read-out: MIC90): 16 µg/mL
- MIC ([2]; All S. aureus (50)): 8 µg/mL
- MIC50 ([3]; Enterobacteriaceae (197), read-out: MIC50): 4 µg/mL
- MIC90 ([3]; Enterobacteriaceae (197), read-out: MIC90): > 32 µg/mL
- MIC ([3]; Enterobacteriaceae (197)): 4 µg/mL
- MIC50 ([4]; BSBL (47), read-out: MIC50): 8 µg/mL
- MIC90 ([4]; BSBL (47), read-out: MIC90): > 32 µg/mL
- MIC ([4]; BSBL (47)): > 32 µg/mL
- MIC50 [5]: 4 µg/mL
- MIC90 [5]: 32 µg/mL
- MIC [5]: 16 µg/mL
- MIC50 ([6]; K. pneumoniae (87), read-out: MIC50): 8 µg/mL
- MIC90 ([6]; K. pneumoniae (87), read-out: MIC90): > 32 µg/mL
- MIC ([6]; K. pneumoniae (87)): 4 µg/mL
- MIC50 ([7]; E. cloacae (27), read-out: MIC50): 16 µg/mL
- MIC90 ([7]; E. cloacae (27), read-out: MIC90): 32 µg/mL
- MIC ([7]; E. cloacae (27)): 16 µg/mL
- MIC50 ([8]; E. faecalis (11), read-out: MIC50): 32 µg/mL
- MIC90 ([8]; E. faecalis (11), read-out: MIC90): > 32 µg/mL
- MIC ([8]; E. faecalis (11)): 32 µg/mL
- MIC90 [9]: > 32 µg/mL
- MIC [9]: 32 µg/mL
- MIC50 ([10]; MRSA (37), read-out: MIC50): 4 µg/mL
- MIC90 ([10]; MRSA (37), read-out: MIC90): 16 µg/mL
- MIC ([10]; MRSA (37)): 8 µg/mL
- MIC50 ([11]; All Enterococci (50), read-out: MIC50): > 32 µg/mL
- MIC90 ([11]; All Enterococci (50), read-out: MIC90): > 32 µg/mL
- MIC ([11]; All Enterococci (50)): > 32 µg/mL
- MIC Range ([12]; MSSA (13)): 2 to 16 µg/mL
- MIC50 ([12]; MSSA (13), read-out: MIC50): 4 µg/mL
- MIC90 ([12]; MSSA (13), read-out: MIC90): 16 µg/mL
- MIC ([12]; MSSA (13)): 4 µg/mL
- MIC50 ([13]; GRE (43), read-out: MIC50): > 32 µg/mL
- MIC90 ([13]; GRE (43), read-out: MIC90): > 32 µg/mL
- MIC ([13]; GRE (43)): > 32 µg/mL
- MIC50 ([14]; E. faecium (34), read-out: MIC50): > 32 µg/mL
- MIC90 ([14]; E. faecium (34), read-out: MIC90): > 32 µg/mL
- MIC ([14]; E. faecium (34)): > 32 µg/mL

SMILES: N[C@@H](CCl)C(=O)N[C@@H](CCl)C(=O)O [β-Cl-Ala-β-Cl-Ala, β-chloro-L-alanyl-β-chloro-L-alanine]
- MIC50 [1]: 8 µg/mL (≈ 34.9 µM)
- MIC90 [1]: > 8 µg/mL
- MIC [1]: 8 µg/mL (≈ 34.9 µM)
- MIC Range ([2]; All S. aureus (50)): 0.125 to 16 µg/mL
- MIC50 [2]: 2 µg/mL (≈ 8.73 µM)
- MIC90 [2]: 4 µg/mL (≈ 17.5 µM)
- MIC [2]: 2 µg/mL (≈ 8.73 µM)
- MIC50 [3]: > 8 µg/mL
- MIC90 [3]: > 8 µg/mL
- MIC [3]: > 8 µg/mL
- MIC50 [4]: > 8 µg/mL
- MIC90 [4]: > 8 µg/mL
- MIC [4]: > 8 µg/mL
- MIC50 [5]: > 8 µg/mL
- MIC90 [5]: > 8 µg/mL
- MIC [5]: > 8 µg/mL
- MIC50 [6]: > 8 µg/mL
- MIC90 [6]: > 8 µg/mL
- MIC [6]: > 8 µg/mL
- MIC50 [7]: > 8 µg/mL
- MIC90 [7]: > 8 µg/mL
- MIC [7]: > 8 µg/mL
- MIC Range ([8]; E. faecalis (11)): 4 to 16 µg/mL
- MIC50 [8]: 8 µg/mL (≈ 34.9 µM)
- MIC90 [8]: 16 µg/mL (≈ 69.8 µM)
- MIC [8]: 8 µg/mL (≈ 34.9 µM)
- MIC50 [9]: > 8 µg/mL
- MIC90 [9]: > 8 µg/mL
- MIC [9]: > 8 µg/mL
- MIC Range ([10]; MRSA (37)): 0.125 to 16 µg/mL
- MIC50 ([10]; MRSA): 2 µg/mL (≈ 8.73 µM)
- MIC90 ([10]; MRSA): 4 µg/mL (≈ 17.5 µM)
- MIC ([10]; MRSA): 2 µg/mL (≈ 8.73 µM)
- MIC50 [11]: 16 µg/mL (≈ 69.8 µM)
- MIC90 [11]: 32 µg/mL (≈ 140 µM)
- MIC Range ([11]; All Enterococci (50)): 2 to 16 µg/mL
- MIC [11]: 16 µg/mL (≈ 69.8 µM)
- MIC Range ([12]; MSSA (13)): 0.5 to 2 µg/mL
- MIC50 ([12]; MSSA): 1 µg/mL (≈ 4.37 µM)
- MIC90 ([12]; MSSA): 2 µg/mL (≈ 8.73 µM)
- MIC ([12]; MSSA): 1 µg/mL (≈ 4.37 µM)
- MIC50 [13]: 16 µg/mL (≈ 69.8 µM)
- MIC90 [13]: > 32 µg/mL
- MIC [13]: 16 µg/mL (≈ 69.8 µM)
- MIC50 [14]: 16 µg/mL (≈ 69.8 µM)
- MIC90 [14]: 32 µg/mL (≈ 140 µM)
- MIC [14]: 16 µg/mL (≈ 69.8 µM)
